{
  "source": "ChEMBL document CHEMBL5705887",
  "about": "“Distinct concentration-dependent effects of the polo-like kinase 1-specific inhibitor GSK461364A, including differential effect on apoptosis” (Cancer Res, 2009)",
  "key": {"SAOS-2": {"tested_on": "SAOS-2", "assay": "Antiproliferative activity against human SAOS-2 cells assessed as growth inhibition incubated for 72 hrs by celltiter-glo assay", "type": "functional"}, "SK-MEL-28": {"tested_on": "SK-MEL-28", "assay": "Antiproliferative activity against human SK-MEL-28 cells assessed as of viable cell signal at minimum maximum cell growth incubated for 72 hrs by celltiter-glo assay relative to control", "type": "functional"}, "[1]": {"target": "Calcium/calmodulin-dependent protein kinase type II subunit delta (Homo sapiens) (UniProt Q13557)", "sequence (Q13557 whole entry)": "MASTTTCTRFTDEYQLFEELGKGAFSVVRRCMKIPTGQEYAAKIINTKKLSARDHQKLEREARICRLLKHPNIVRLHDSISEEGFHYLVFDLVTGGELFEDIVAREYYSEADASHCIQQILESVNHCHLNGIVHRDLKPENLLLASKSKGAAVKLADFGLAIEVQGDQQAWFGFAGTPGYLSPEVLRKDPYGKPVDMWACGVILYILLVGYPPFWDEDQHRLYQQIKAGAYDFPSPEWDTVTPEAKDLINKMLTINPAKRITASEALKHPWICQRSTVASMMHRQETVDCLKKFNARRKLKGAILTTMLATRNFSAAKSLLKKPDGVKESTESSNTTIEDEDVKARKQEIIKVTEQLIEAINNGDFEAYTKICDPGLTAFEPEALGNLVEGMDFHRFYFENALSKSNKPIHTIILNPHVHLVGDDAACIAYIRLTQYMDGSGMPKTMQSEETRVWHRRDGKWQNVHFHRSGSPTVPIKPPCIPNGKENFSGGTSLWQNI", "assay": "Inhibition recombinant human CAMKII-delta at 10 uM relative to control"}, "ZR-75-1 [2]": {"tested_on": "ZR-75-1", "assay": "Antiproliferative activity against human ZR-75-1 cells assessed as of viable cell signal at minimum maximum cell growth incubated for 72 hrs by celltiter-glo assay relative to control", "type": "functional"}, "LoVo [3]": {"tested_on": "LoVo", "assay": "Antiproliferative activity against human LoVo cells assessed as viable cell signal at maximum growth inhibition incubated for 72 hrs by celltiter-glo assay relative to control", "type": "functional"}, "U2OS [4]": {"tested_on": "U2OS", "assay": "Antiproliferative activity against human U2OS cells assessed as of viable cell signal at minimum maximum cell growth incubated for 72 hrs by celltiter-glo assay relative to control", "type": "functional"}, "A498": {"tested_on": "A498", "assay": "Antiproliferative activity against human A498 cells assessed as of viable cell signal at minimum maximum cell growth incubated for 72 hrs by celltiter-glo assay relative to control", "type": "functional"}, "ZR-75-1 [5]": {"tested_on": "ZR-75-1", "assay": "Growth inhibition of human ZR-75-1 cells assessed as viable cells at 250 nmol/L measured immediately by celltiter-glo assay", "type": "functional", "conditions": "read-out: Activity"}, "SCLC": {"tested_on": "SCLC", "assay": "Antiproliferative activity against human SCLC cells assessed as growth inhibition incubated for 72 hrs by celltiter-glo assay", "type": "functional"}, "A704 [6]": {"tested_on": "A704", "assay": "Antiproliferative activity against human A704 cells assessed as growth inhibition incubated for 72 hrs by celltiter-glo assay", "type": "functional"}, "MCF7": {"tested_on": "MCF7", "assay": "Antiproliferative activity against human MCF7 cells assessed as growth inhibition incubated for 72 hrs by celltiter-glo assay", "type": "functional"}, "SK-MEL-2 [7]": {"tested_on": "SK-MEL-2", "assay": "Antiproliferative activity against human SK-MEL-2 cells assessed as growth inhibition incubated for 72 hrs by celltiter-glo assay", "type": "functional"}, "[8]": {"target": "Testis-specific serine/threonine-protein kinase 1 (Homo sapiens) (UniProt Q9BXA7)", "sequence (Q9BXA7 whole entry)": "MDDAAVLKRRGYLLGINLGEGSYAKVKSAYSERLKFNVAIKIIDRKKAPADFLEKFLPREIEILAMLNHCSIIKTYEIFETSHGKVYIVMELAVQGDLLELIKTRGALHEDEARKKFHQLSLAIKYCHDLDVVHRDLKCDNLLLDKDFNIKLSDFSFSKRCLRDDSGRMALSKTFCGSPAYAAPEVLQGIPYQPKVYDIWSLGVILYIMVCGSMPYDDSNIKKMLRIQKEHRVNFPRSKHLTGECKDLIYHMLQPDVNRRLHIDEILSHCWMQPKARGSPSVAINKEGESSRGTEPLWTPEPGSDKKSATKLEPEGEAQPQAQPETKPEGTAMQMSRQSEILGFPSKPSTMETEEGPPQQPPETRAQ", "assay": "Inhibition of full length his6-tagged recombinant human TSSK1 expressed in baculovirus Sf21 insect cells at 10 uM relative to control"}, "PANC-08-13": {"tested_on": "PANC-08-13", "assay": "Antiproliferative activity against human PANC-08-13 cells assessed as viable cell signal at maximum growth inhibition incubated for 72 hrs by celltiter-glo assay relative to control", "type": "functional"}, "LoVo [9]": {"tested_on": "LoVo", "assay": "Antiproliferative activity against human LoVo cells assessed as growth inhibition incubated for 72 hrs by celltiter-glo assay", "type": "functional"}, "NCI-N87": {"tested_on": "NCI-N87", "assay": "Antiproliferative activity against human NCI-N87 cells assessed as of viable cell signal at minimum maximum cell growth incubated for 72 hrs by celltiter-glo assay relative to control", "type": "functional"}, "T-24": {"tested_on": "T-24", "assay": "Antiproliferative activity against human T24 cells assessed as growth inhibition incubated for 72 hrs by celltiter-glo assay", "type": "functional"}, "MDA-MB-231": {"tested_on": "MDA-MB-231", "assay": "Antiproliferative activity against human MDA-MB-231 cells assessed as growth inhibition incubated for 72 hrs by celltiter-glo assay", "type": "functional"}, "HCC1954 [10]": {"tested_on": "HCC1954", "assay": "Antiproliferative activity against human HCC1954 cells assessed as viable cell signal at maximum growth inhibition incubated for 72 hrs by celltiter-glo assay relative to control", "type": "functional"}, "[11]": {"target": "Serine/threonine-protein kinase D1 (Homo sapiens) (UniProt Q15139)", "sequence (Q15139 whole entry)": "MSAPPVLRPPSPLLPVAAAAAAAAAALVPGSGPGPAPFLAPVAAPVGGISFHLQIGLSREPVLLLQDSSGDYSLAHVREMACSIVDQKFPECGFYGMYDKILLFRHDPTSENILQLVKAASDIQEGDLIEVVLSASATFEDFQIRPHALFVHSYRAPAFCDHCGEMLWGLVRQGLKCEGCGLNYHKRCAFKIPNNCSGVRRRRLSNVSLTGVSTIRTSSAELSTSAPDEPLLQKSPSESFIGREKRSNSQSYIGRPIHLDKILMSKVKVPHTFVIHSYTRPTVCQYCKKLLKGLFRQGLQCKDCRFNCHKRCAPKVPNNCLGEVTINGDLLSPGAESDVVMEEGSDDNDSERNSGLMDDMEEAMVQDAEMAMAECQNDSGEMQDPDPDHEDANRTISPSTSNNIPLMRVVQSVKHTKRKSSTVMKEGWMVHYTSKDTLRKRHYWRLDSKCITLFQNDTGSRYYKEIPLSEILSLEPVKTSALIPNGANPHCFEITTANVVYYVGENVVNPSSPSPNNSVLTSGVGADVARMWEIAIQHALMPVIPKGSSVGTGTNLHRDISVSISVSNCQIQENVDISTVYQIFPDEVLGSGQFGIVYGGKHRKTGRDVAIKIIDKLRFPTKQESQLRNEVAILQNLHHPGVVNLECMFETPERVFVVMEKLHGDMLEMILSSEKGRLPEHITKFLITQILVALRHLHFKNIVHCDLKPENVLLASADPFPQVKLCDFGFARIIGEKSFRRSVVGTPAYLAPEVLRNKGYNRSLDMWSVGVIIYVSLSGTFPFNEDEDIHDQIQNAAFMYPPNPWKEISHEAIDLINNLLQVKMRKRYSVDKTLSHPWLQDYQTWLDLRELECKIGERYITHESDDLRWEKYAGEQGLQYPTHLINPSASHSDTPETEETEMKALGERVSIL", "assay": "Inhibition of recombinant human PKC-mu at 10 uM relative to control"}, "SW480": {"tested_on": "SW480", "assay": "Antiproliferative activity against human SW480 cells assessed as viable cell signal at maximum growth inhibition incubated for 72 hrs by celltiter-glo assay relative to control", "type": "functional"}, "ZR-75-1 [12]": {"tested_on": "ZR-75-1", "assay": "Antiproliferative activity against human ZR-75-1 cells assessed as growth inhibition incubated for 72 hrs by celltiter-glo assay", "type": "functional"}, "SK-MEL-2 [13]": {"tested_on": "SK-MEL-2", "assay": "Antiproliferative activity against human SK-MEL-2 cells assessed as viable cell signal at maximum growth inhibition incubated for 72 hrs by celltiter-glo assay relative to control", "type": "functional"}, "NCI-H358": {"tested_on": "NCI-H358", "assay": "Antiproliferative activity against human NCI-H358 cells assessed as of viable cell signal at minimum maximum cell growth incubated for 72 hrs by celltiter-glo assay relative to control", "type": "functional"}, "[14]": {"target": "Serine/threonine-protein kinase pim-1 (Homo sapiens) (UniProt P11309)", "sequence (P11309 whole entry, looked up)": "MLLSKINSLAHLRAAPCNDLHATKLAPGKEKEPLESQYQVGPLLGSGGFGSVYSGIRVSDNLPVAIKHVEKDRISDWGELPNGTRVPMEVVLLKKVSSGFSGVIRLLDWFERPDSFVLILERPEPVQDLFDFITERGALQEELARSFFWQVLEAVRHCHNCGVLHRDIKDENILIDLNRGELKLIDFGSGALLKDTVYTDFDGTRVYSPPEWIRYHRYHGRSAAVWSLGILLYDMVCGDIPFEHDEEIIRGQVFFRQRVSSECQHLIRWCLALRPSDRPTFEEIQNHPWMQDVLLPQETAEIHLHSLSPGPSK", "assay": "Inhibition of full length N-terminal GST-tagged recombinant human PIM1 expressed in Escherichia coli at 10 uM relative to control"}, "U2OS [15]": {"tested_on": "U2OS", "assay": "Antiproliferative activity against human U2OS cells assessed as viable cell signal at maximum growth inhibition incubated for 72 hrs by celltiter-glo assay relative to control", "type": "functional"}, "HT-29": {"tested_on": "HT-29", "assay": "Induction of mitotic arrest in human HT-29 cells assessed as effect on pHH3 level at 10 to 250 nmol/L incubated for 19 hrs by ELISA analysis", "type": "functional, cell-based", "conditions": "dose 10-250 nmol/L"}, "HCC1954 [16]": {"tested_on": "HCC1954", "assay": "Antiproliferative activity against human HCC1954 cells assessed as growth inhibition incubated for 72 hrs by celltiter-glo assay", "type": "functional"}, "COLO 205 [17]": {"tested_on": "COLO 205", "assay": "Antitumor activity against human COLO 205 cells xenografted in Nude mouse assessed as increase in pHH3 level at 50 to 100 mg/kg, ip administered one dose every 2 day repeated for 12 days by immunohistochemistry analysis", "type": "functional, organism-based", "conditions": "dose 50-100 mg/kg, time 12.0 day"}, "U2OS [18]": {"tested_on": "U2OS", "assay": "Induction of mitotic arrest in human U2OS cells assessed as effect on pHH3 level at 10 to 250 nmol/L incubated for 19 hrs by ELISA analysis", "type": "functional, cell-based", "conditions": "dose 10-250 nmol/L"}, "A704 [19]": {"tested_on": "A704", "assay": "Antiproliferative activity against human A704 cells assessed as of viable cell signal at minimum maximum cell growth incubated for 72 hrs by celltiter-glo assay relative to control", "type": "functional"}, "COLO 205 [20]": {"tested_on": "COLO 205", "assay": "Antitumor activity against human COLO 205 cells xenografted in Nude mouse assessed as tumor regression at 50 mg/kg, ip administered one dose every 2 day repeated for 12 days", "type": "functional, organism-based", "conditions": "time 12.0 day"}, "BT-549": {"tested_on": "BT-549", "assay": "Antiproliferative activity against human BT-549 cells assessed as viable cell signal at maximum growth inhibition incubated for 72 hrs by celltiter-glo assay relative to control", "type": "functional"}, "Calu-3": {"tested_on": "Calu-3", "assay": "Antiproliferative activity against human Calu-3 cells assessed as of viable cell signal at minimum maximum cell growth incubated for 72 hrs by celltiter-glo assay relative to control", "type": "functional"}, "MDA-MB-468": {"tested_on": "MDA-MB-468", "assay": "Antiproliferative activity against human MDA-MB-468 cells assessed as growth inhibition incubated for 72 hrs by celltiter-glo assay", "type": "functional"}, "U2OS [21]": {"tested_on": "U2OS", "assay": "Induction of mitotic arrest in human U2OS cells expressing fused cyclin B1-GFP at > 250 nmol/L incubated for 48 hrs by image based analysis", "type": "functional, cell-based"}, "PC-3": {"tested_on": "PC-3", "assay": "Antiproliferative activity against human PC-3 cells assessed as of viable cell signal at minimum maximum cell growth incubated for 72 hrs by celltiter-glo assay relative to control", "type": "functional"}, "A-431": {"tested_on": "A-431", "assay": "Antiproliferative activity against human A-431 cells assessed as viable cell signal at maximum growth inhibition incubated for 72 hrs by celltiter-glo assay relative to control", "type": "functional"}, "U2OS [22]": {"tested_on": "U2OS", "assay": "Induction of mitotic arrest in human U2OS cells expressing fused cyclin B1-GFP at 10 to 250 nmol/L incubated for 24 hrs by image based analysis", "type": "functional, cell-based", "conditions": "dose 10-250 nmol/L"}, "[23]": {"target": "Fibroblast growth factor receptor 3 (Homo sapiens) (UniProt P22607)", "sequence (P22607 23-806 limits assumed)": "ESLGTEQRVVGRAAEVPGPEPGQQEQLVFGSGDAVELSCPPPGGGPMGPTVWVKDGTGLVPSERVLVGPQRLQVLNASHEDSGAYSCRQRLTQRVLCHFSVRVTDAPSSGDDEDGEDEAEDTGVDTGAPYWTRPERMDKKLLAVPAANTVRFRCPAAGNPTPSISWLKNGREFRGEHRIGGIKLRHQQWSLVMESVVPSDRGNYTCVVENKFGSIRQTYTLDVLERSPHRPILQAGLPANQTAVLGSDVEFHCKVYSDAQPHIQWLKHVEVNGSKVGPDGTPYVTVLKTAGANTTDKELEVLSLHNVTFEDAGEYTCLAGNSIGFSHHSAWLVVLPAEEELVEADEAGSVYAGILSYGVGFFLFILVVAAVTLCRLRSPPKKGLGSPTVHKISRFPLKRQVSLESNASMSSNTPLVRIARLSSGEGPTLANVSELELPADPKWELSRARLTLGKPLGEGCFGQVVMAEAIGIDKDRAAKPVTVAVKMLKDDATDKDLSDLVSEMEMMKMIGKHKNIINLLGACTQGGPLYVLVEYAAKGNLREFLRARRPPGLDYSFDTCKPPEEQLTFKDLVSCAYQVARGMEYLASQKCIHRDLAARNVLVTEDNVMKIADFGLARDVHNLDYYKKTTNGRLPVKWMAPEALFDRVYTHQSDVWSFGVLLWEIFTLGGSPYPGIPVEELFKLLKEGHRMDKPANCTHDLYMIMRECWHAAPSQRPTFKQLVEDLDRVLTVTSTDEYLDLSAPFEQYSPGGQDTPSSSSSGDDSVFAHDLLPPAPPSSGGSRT", "assay": "Inhibition of N-terminal his6-tagged recombinant human FGFR3 (447 to 761 residues) expressed in baculovirus Sf21 insect cells at 10 uM relative to control"}},
  "note": "Calls of active or inactive are those of the source. The calls are words filed in the database; no cut-off is given here.",
  "data": [
    {"smiles": "C[C@@H](Oc1cc(-n2cnc3ccc(CN4CCN(C)CC4)cc32)sc1C(N)=O)c1ccccc1C(F)(F)F", "note": "[GSK-461364]", "values": [
      {"measurement": "GI50", "setting": "SAOS-2", "value": 14.2, "unit": "nM"},
      {"measurement": "Emin", "setting": "SK-MEL-28", "value": 199.6, "unit": "%"},
      {"measurement": "inhibition", "setting": "[1]", "value": 88, "unit": "%"},
      {"measurement": "Emin", "setting": "ZR-75-1 [2]", "value": 133.6, "unit": "%"},
      {"measurement": "Emax", "setting": "LoVo [3]", "value": 400, "unit": "%"},
      {"measurement": "Emin", "setting": "U2OS [4]", "value": 170.6, "unit": "%"},
      {"measurement": "Emin", "setting": "A498", "value": 243.2, "unit": "%"},
      {"measurement": "viability at 0.25 µM", "setting": "ZR-75-1 [5]", "value": 200, "unit": "%"},
      {"measurement": "GI50", "setting": "SCLC", "value": 17.4, "unit": "nM"},
      {"measurement": "GI50", "setting": "A704 [6]", "value": 183, "unit": "nM"},
      {"measurement": "GI50", "setting": "MCF7", "value": 6.4, "unit": "nM"},
      {"measurement": "GI50", "setting": "SK-MEL-2 [7]", "value": 14, "unit": "nM"},
      {"measurement": "inhibition", "setting": "[8]", "value": 61, "unit": "%"},
      {"measurement": "Emax", "setting": "PANC-08-13", "value": 256, "unit": "%"},
      {"measurement": "GI50", "setting": "LoVo [9]", "value": 12.2, "unit": "nM"},
      {"measurement": "Emin", "setting": "NCI-N87", "value": 321.5, "unit": "%"},
      {"measurement": "GI50", "setting": "T-24", "value": 42.3, "unit": "nM"},
      {"measurement": "GI50", "setting": "MDA-MB-231", "value": 9.15, "unit": "nM"},
      {"measurement": "Emax", "setting": "HCC1954 [10]", "value": 280, "unit": "%"},
      {"measurement": "inhibition", "setting": "[11]", "value": 53, "unit": "%"},
      {"measurement": "Emax", "setting": "SW480", "value": 512, "unit": "%"},
      {"measurement": "GI50", "setting": "ZR-75-1 [12]", "value": 46.5, "unit": "nM"},
      {"measurement": "Emax", "setting": "SK-MEL-2 [13]", "value": 422, "unit": "%"},
      {"measurement": "Emin", "setting": "NCI-H358", "value": 150, "unit": "%"},
      {"measurement": "inhibition", "setting": "[14]", "value": 90, "unit": "%"},
      {"measurement": "Emax", "setting": "U2OS [15]", "value": 771, "unit": "%"},
      {"measurement": "Activity", "setting": "HT-29", "value": "Active"},
      {"measurement": "GI50", "setting": "HCC1954 [16]", "value": 14.1, "unit": "nM"},
      {"measurement": "Activity", "setting": "COLO 205 [17]", "value": "Active"},
      {"measurement": "Activity", "setting": "U2OS [18]", "value": "Active"},
      {"measurement": "Emin", "setting": "A704 [19]", "value": 3.2, "unit": "%"},
      {"measurement": "Activity", "setting": "COLO 205 [20]", "value": "Active"},
      {"measurement": "Emax", "setting": "BT-549", "value": 265, "unit": "%"},
      {"measurement": "Emin", "setting": "Calu-3", "value": 115.6, "unit": "%"},
      {"measurement": "GI50", "setting": "MDA-MB-468", "value": 6.35, "unit": "nM"},
      {"measurement": "Activity", "setting": "U2OS [21]", "value": "Active"},
      {"measurement": "Emin", "setting": "PC-3", "value": 385.1, "unit": "%"},
      {"measurement": "Emax", "setting": "A-431", "value": 820, "unit": "%"},
      {"measurement": "Activity", "setting": "U2OS [22]", "value": "inactive"},
      {"measurement": "inhibition", "setting": "[23]", "value": 60, "unit": "%"}
    ]}
  ]
}
